Source: patent US5948791A, “Quinoline derivatives for treating malaria” (Hoffmann-La Roche Inc., priority 1995, dated 1999)
Converted amounts (≈) assume the structure as drawn. Counter-ions that a name gives are not always drawn. Like-named read-outs stand apart in the source and are kept apart here.

Experiments:
[1] = tested on: Plasmodium falciparum K1; test: Growth inhibition of Plasmodium falciparum K1 (chloroquine-resistant) in vitro, [G-3H]-hypoxanthin incorporation; assay type: cell-based, Plasmodium falciparum (strain K1); conditions: for IC50: Plasmodium falciparum, K1, 72 h, read-out: IC50 for P. falciparum K1; for Resistance index: ratio of the IC50 for K1 and the IC50 for NF54
From the text: (§1) The ratio of the growth inhibition of a strain which is especially resistant to chloroquine and of a strain which is sensitive to chloroquine gives as the "resistance index" a measurement for the absence of a cross-resistance with chloroquine. Since, for all novel compounds the resistance index lies between 0.7 and 2.5, they inhibit the growth of sensitive as well as resistant strains of the malaria pathogen equally effectively. They are accordingly also suitable for the prophylaxis of a malaria disease and also for the treatment of a malaria disease even when chloroquine is ineffective. The good activity against malaria pathogens is also shown in animal experiments. The effective doses measured after oral and subcutaneous administration to mice infected with malaria pathogens are shown in Table 2 hereinafter.
(§2) Test method for the determination of the activity against Plasmodium falciparum in vitro
(§3) The preparations are tested on intraerythrocytary stages of Plasmodium falciparum from asynchronous cultures according to the method of Desjardin et al. (Desjardins, R. E. et al: Quantitative assessment of antimalarial activity in vitro by a semiautomated microdilution technique. Antimicrob. Agents Chemother. 16, 710-718, (1979)).
(§4) The culture medium consists of RPMI 1640 with the addition of 25 mM HEPES, 25 mM NaHCO3, 100 μg/ml neomycin and […] (A^+). Human-A^+ erythrocytes are used as the Plasmodium falciparum host cells. The parasites are maintained at 37° C. in an atmosphere of 3% O2, 4% CO2, 93% N2 and 95% relative humidity.
(§5) In order to determine the activity, the preparations are dissolved in DMSO, pre-diluted in the culture medium to a suitable starting concentration and subsequently titrated-out on to microtitre plates in the 2nd stage over 6-7 steps. After the addition of the parasite culture (0.7% parasitemia in 2.5% erythrocyte suspension) the test plates are incubated under the conditions given above for 72 h. The parasite growth in the different preparation concentrations is determined using [G-^3 H]-hypoxanthin incorporation compared to untreated control cultures on the same test plates. The 50% growth inhibition (IC50) is calculated according to logit regression analysis from the resulting dosage-activity curve.
(§6) The preparations are tested on at least one chloroquine-resistant and one chloroquine-sensitive Plasmodium falciparum strain. Additional sensitive and resistant strains are included for further characterization.

[2] = tested on: Plasmodium berghei; test: animal or person; assay type: in vivo, Plasmodium berghei (strain ANKA) in mice; conditions: Plasmodium berghei, mice, blood smears 48 h after treatment
Protocol: Test method for the determination of the activity against Plasmodium berghei in vivo
The preparations are tested on mice infected with malaria pathogens (Plasmodium berghei). Male albino mice (IBM:MORO(SPF), FUELLINSDORF) weighing about 25 g are used as the test animals. They are kept in climatized rooms at 21-22° C. in groups of 5 animals per cage. They receive ad libitum a diet feed with a low PABA content (NAFAG FUTTER " No. 9009 PAB-45, PABA content 45 mg/kg) and drinking water. On the first day of the test (D0) the test animals are infected with Plasmodium berghei (strain ANKA). For this there is used heparinized blood of a donor mouse with about 30% parasitemia, which is diluted with physiological saline such that it contains 10^8 parasitized erythrocytes per ml. 0.2 ml of this suspension is injected intravenously (i.v.) into the mice to be treated and into the control mice.
The substances to be tested are dissolved or suspended in distilled water or in a mixture of 7% Tween 80, 3% alcohol (96%) and water. Usually, 0.25 ml of this solution or suspension is administered once subcutaneously and perorally to groups of 5 test animals. Treatment is effected 24 hours after the infection. 10 control animals are treated in the same manner with solvent or suspension medium per test.
All substances are tested in a first test in a single dosage of 10 mg/kg. Only those substances which in this test (10 mg/kg) have shown a parasitaemia reduction of 90% are used for the titration. Suitable dilutions of the test substance can be used to obtain an accurate titration of the activity.
48 hours after the treatment (D+3) blood smears are prepared from all animals using blood from tail veins and are stained with giemsa. […] The difference in the average values of the infection rates of control group (100%) and treated groups is calculated and expressed as a percentage reduction (GI%). The ED50 or ED90 is determined mathematically by means of the JMP programme (nonlinear fit). The ED50 (ED90) in mg/kg is that dose which after single administration reduces the average erythrocyte infection rate by 50% (90%) in comparison to the control group.

[3] = tested on: Plasmodium falciparum strain NF54; test: Growth inhibition of Plasmodium falciparum NF54 (chloroquine-sensitive) in vitro, [G-3H]-hypoxanthin incorporation; assay type: cell-based; conditions: chloroquine-sensitive strain NF54, 72 h, read-out: IC50 for P. falciparum NF54
From the text: as §1, §2, §3, §4, §5, §6

[4] = po, single peroral dose of 10 mg/kg, read-out: Growth inhibition in % after po administration (GI%, percentage reduction of the parasitemia)
[5] = sc, single subcutaneous dose of 10 mg/kg, read-out: Growth inhibition in % after sc administration (GI%, percentage reduction of the parasitemia)

Structure (SMILES): Cl.Cl.Clc1ccc2c(N[C@H]3CC[C@@H](NCc4c(Cl)ccc(Cl)c4Cl)CC3)ccnc2c1 [Example 17, cis-N1-(7-Chloro-quinolin-4-yl)-N4-(2,3,6-trichloro-benzyl)-cyclohexane-1,4-diamine dihydrochloride]
- IC50 [1]: 0.0174 µg/mL
- Resistance index [1]: 2.8
- inhibition in vivo at 10 mg/kg [2, 4]: 32%
- inhibition in vivo at 10 mg/kg [2, 5]: 87%
- IC50 [3]: 0.0064 µg/mL

Structure (SMILES): C[C@@H](CNCc1ccc(N(C)C)cc1)Nc1ccnc2cc(Cl)ccc12.Cl.Cl.Cl [Example 2, (2S)-N2-(7-Chloro-quinolin-4-yl)-N1-(4-dimethylamino-benzyl)-propane-1,2-diamine trihydrochloride]
- IC50 [1]: 0.0148 µg/mL
- Resistance index [1]: 2.1
- IC50 [3]: 0.0071 µg/mL

Structure (SMILES): CC(C)(CNc1ccnc2cc(Cl)ccc12)NCc1cccc2ccccc12.Cl.Cl [Example 52, N1-(7-Chloro-quinolin-4-yl)-N2-(naphthalen-1-yl-methyl)-2-methyl-propane-1,2-diamine dihydrochloride]
- IC50 [1]: 0.0556 µg/mL
- Resistance index [1]: 1.6
- IC50 [3]: 0.0346 µg/mL

Structure (SMILES): COc1ccccc1CNC(C)(C)CNc1ccnc2cc(Cl)ccc12.Cl.Cl [Example 34, N1-(7-Chloro-quinolin-4-yl)-N2-(2-methoxy-benzyl)-2-methyl-propane-1,2-diamine dihydrochloride]
- IC50 [1]: 0.015 µg/mL
- Resistance index [1]: 2.1
- IC50 [3]: 0.0072 µg/mL

Structure (SMILES): COc1cc(CN[C@H]2CCCC[C@@H]2Nc2ccnc3cc(Cl)ccc23)cc(OC)c1OC.Cl.Cl [Example 65, (1S,2S)-N1-(7-Chloro-quinolin-4-yl)-N2-(3,4,5-trimethoxy-benzyl)-cyclohexane-1,2-diamine dihydrochloride]
- IC50 [1]: 0.0253 µg/mL
- Resistance index [1]: 2.6
- IC50 [3]: 0.0099 µg/mL

Structure (SMILES): CC(C)(CNc1ccnc2cc(Cl)ccc12)NCc1ccc(C(F)(F)F)cc1C(F)(F)F.Cl.Cl [Example 59, N1-(7-Chloro-quinolin-4-yl)-N2-(2,4-bis-trifluoromethyl-benzyl)-2-methyl-propane-1,2-diamine dihydrochloride]
- IC50 [1]: 0.186 µg/mL
- Resistance index [1]: 1.1
- IC50 [3]: 0.166 µg/mL

Structure (SMILES): Oc1ccccc1CN[C@H]1CC[C@@H](Nc2ccnc3cc(Cl)ccc23)CC1 [Example 78, cis-N1-(7-Chloro-quinolin-4-yl)-N4-(2-hydroxy-benzyl)-cyclohexane-1,4-diamine dihydrochloride]
- inhibition in vivo at 10 mg/kg [2, 4]: 99.9%
- inhibition in vivo at 10 mg/kg [2, 5]: 100%

Structure (SMILES): COc1ccc(CNC(C)(C)CNc2ccnc3cc(Cl)ccc23)cc1.Cl.Cl [Example 35, N1-(7-Chloro-quinolin-4-yl)-N2-(4-methoxy-benzyl)-2-methyl-propane-1,2-diamine dihydrochloride]
- IC50 [1]: 0.0133 µg/mL
- Resistance index [1]: 2.1
- IC50 [3]: 0.0064 µg/mL

Structure (SMILES): C[C@H](CNc1ccnc2cc(Cl)ccc12)NCc1ccc(N(C)C)cc1.Cl.Cl.Cl [Example 1, (2R)-N1-(7-Chloro-quinolin-4-yl)-N2-(4-dimethylamino-benzyl)-propane-1,2-diamine trihydrochloride]
- IC50 [1]: 0.0175 µg/mL
- Resistance index [1]: 1.4
- IC50 [3]: 0.0126 µg/mL

Structure (SMILES): CC(C)(CNc1ccnc2cc(Cl)ccc12)NCc1ccc2c(c1)OCO2.Cl.Cl [Example 42, N1-(7-Chloro-quinolin-4-yl)-N2-benzo[1,3]dioxol-5-ylmethyl-2-methyl-propane-1,2-diamine dihydrochloride]
- IC50 [1]: 0.0126 µg/mL
- Resistance index [1]: 1.4
- IC50 [3]: 0.0087 µg/mL

Structure (SMILES): CC(C)(CNc1ccnc2cc(Cl)ccc12)NCc1cccc(Cl)c1Cl.Cl.Cl [Example 26, N1-(7-Chloro-quinolin-4-yl)-N2-(2,3-dichloro-benzyl)-2-methyl-propane-1,2-diamine dihydrochloride]
- IC50 [1]: 0.0373 µg/mL
- Resistance index [1]: 1.4
- IC50 [3]: 0.0263 µg/mL

Structure (SMILES): CC(C)(CNc1ccnc2cc(Cl)ccc12)NCc1cccc(O)c1.Cl.Cl [Example 32, N1-(7-Chloro-quinolin-4-yl)-N2-(3-hydroxy-benzyl)-2-methyl-propane-1,2-diamine dihydrochloride]
- IC50 [1]: 0.0147 µg/mL
- Resistance index [1]: 1.9
- IC50 [3]: 0.0076 µg/mL

Structure (SMILES): COc1ccc(CNC(C)(C)CNc2ccnc3cc(Cl)ccc23)c(OC)c1.Cl.Cl [Example 37, N1-(7-Chloro-quinolin-4-yl)-N2-(2,4-dimethoxy-benzyl)-2-methyl-propane-1,2-diamine dihydrochloride]
- IC50 [1]: 0.011 µg/mL
- Resistance index [1]: 1.0
- IC50 [3]: 0.011 µg/mL

Structure (SMILES): COc1cc(CNC(C)(C)CNc2ccnc3cc(Cl)ccc23)cc(OC)c1OC.Cl.Cl [Example 41, N1-(7-Chloro-quinolin-4-yl)-N2-(3,4,5-trimethoxy-benzyl)-2-methyl-propane-1,2-diamine dihydrochloride]
- IC50 [1]: 0.0187 µg/mL
- Resistance index [1]: 1.4
- IC50 [3]: 0.0135 µg/mL

Structure (SMILES): CC(C)(CNc1ccnc2cc(Cl)ccc12)NCc1ccoc1.Cl.Cl [Example 55, N1-(7-Chloro-quinolin-4-yl)-N2-(furan-3-yl-methyl)-2-methyl-propane-1,2-diamine dihydrochloride]
- IC50 [1]: 0.0145 µg/mL
- Resistance index [1]: 1.9
- IC50 [3]: 0.0078 µg/mL

Structure (SMILES): CC(C)(CNc1ccnc2cc(Cl)ccc12)NCc1ccc2ccccc2c1.Cl.Cl [Example 53, N1-(7-Chloro-quinolin-4-yl)-N2-(naphthalen-2-yl-methyl)-2-methyl-propane-1,2-diamine dihydrochloride]
- IC50 [1]: 0.0149 µg/mL
- Resistance index [1]: 0.9
- IC50 [3]: 0.0159 µg/mL

Structure (SMILES): COc1ccc(OC)c(CNC(C)(C)CNc2ccnc3cc(Cl)ccc23)c1.Cl.Cl [Example 38, N1-(7-Chloro-quinolin-4-yl)-N2-(2,5-dimethoxy-benzyl)-2-methyl-propane-1,2-diamine dihydrochloride]
- IC50 [1]: 0.0151 µg/mL
- Resistance index [1]: 1.5
- IC50 [3]: 0.0101 µg/mL

Structure (SMILES): COc1ccc(CNC(C)(C)CNc2ccnc3cc(Cl)ccc23)cc1OC.Cl.Cl [Example 39, N1-(7-Chloro-quinolin-4-yl)-N2-(3,4-dimethoxy-benzyl)-2-methyl-propane-1,2-diamine dihydrochloride]
- IC50 [1]: 0.0103 µg/mL
- Resistance index [1]: 1.3
- IC50 [3]: 0.0078 µg/mL

Structure (SMILES): COc1cccc(CNC(C)(C)CNc2ccnc3cc(Cl)ccc23)c1OC.Cl.Cl [Example 36, N1-(7-Chloro-quinolin-4-yl)-N2-(2,3-dimethoxy-benzyl)-2-methyl-propane-1,2-diamine dihydrochloride]
- IC50 [1]: 0.0207 µg/mL
- Resistance index [1]: 1.3
- IC50 [3]: 0.0162 µg/mL

Structure (SMILES): CC(C)(CNc1ccnc2cc(Cl)ccc12)NCc1ccco1.Cl.Cl [Example 54, N1-(7-Chloro-quinolin-4-yl)-N2-(furan-2-yl-methyl)-2-methyl-propane-1,2-diamine dihydrochloride]
- IC50 [1]: 0.029 µg/mL
- Resistance index [1]: 1.5
- IC50 [3]: 0.0193 µg/mL

Structure (SMILES): CCN(CC)Cc1cc(Nc2ccnc3cc(Cl)ccc23)ccc1O [Amodiaquine, reference compound]
- IC50 [1]: 0.0035 µg/mL (≈ 9.84 nM)
- IC50 [3]: 0.0025 µg/mL (≈ 7.03 nM)
